Columns and labels:
[1] = system: human umbilical vein endothelial cells (HUVECs); assay: Viability of hypoxic endothelial cells, CCK8 method; format: cell-based; conditions: Lac-Phe final concentrations 5, 10, 20 and 40 μM added 8 hours before hypoxia for 24 hours
Procedure: The Lac-Phe was added to human umbilical vein endothelial cells (HUVECs), and 8 hours later, the HUVECs were placed in a hypoxia incubator and cultured under hypoxia for 24 hours (N2 95%, CO2 5%). The cell viability was evaluated by Cell Counting Kit-8 (CCK8) method for the normal control group (CTRL), hypoxia group (Hypoxia), and Lac-Phe-treated hypoxia group.

HUVECs [2] = assay: Endothelial cell tube formation assay; format: cell-based, human; conditions: Lac-Phe final concentration 20 μM, 24 hours after administration
Procedure: HUVECs were divided into 2 groups: a control group (CTRL, including 0.1% of DMSO), and a Lac-Phe-treated group (final concentration: 20 μM). 24 hours after administration, the endothelial cell tube formation assay was performed.
It can be seen from the experimental results that Lac-Phe can increase the length of branches and the number of branch points formed from HUVECs (FIG. 5A-FIG. 5C). The above results also indicate that Lac-Phe has the potential to promote angiogenesis.

HUVECs [3] = assay: Apoptosis of hypoxic endothelial cells by flow cytometry; format: cell-based, human; conditions: Lac-Phe final concentration 20 μM, added 8 hours before hypoxia for 24 hours
Procedure: The Lac-Phe was added to HUVECs, and 8 hours later, the HUVECs were placed in a hypoxia incubator and cultured under hypoxia for 24 hours (N2 95%, CO2 5%). The cell apoptosis was determined by flow cytometry for the normal control group (CTRL), hypoxia group (Hypoxia), and Lac-Phe-treated hypoxia group.

HUVECs [4] = assay: Endothelial cell migration, wound closure assay; format: cell-based, human; conditions: Lac-Phe final concentration 10 μM, 12, 24 and 36 hours, versus control with 0.1% DMSO
Procedure: HUVECs were divided into 2 groups: a control group (CTRL, including 0.1% of dimethylsulfoxide (DMSO)), and a Lac-Phe-treated group (final concentration: 10 μM). Cell monolayers were wounded in wells of a cell culture plate along the central axis of each well by an autoclaved white pipette tip, suspended cells in each well were washed with phosphate buffered saline (PBS), and a medium without fetal bovine serum was added to each well. The wounds were photographed with an inverted microscope, that is, the wound area was recorded at 0 hour. The cells were then further incubated in a cell culture incubator at 37° C. for 12 hours, 24 hours, and 36 hours. Then, the wounds were photographed under the inverted microscope, that is, the wound area was recorded. The ImageJ software was used to quantitatively assess the wound closure (FIG. 4A-FIG. 4B).

[5] = system: mouse model of myocardial ischemia; assay: Mouse model of myocardial ischemia (left anterior descending coronary artery ligation), echocardiographic cardiac function; format: in vivo, mice; conditions: mouse MI model, Lac-Phe 20 mg/kg intraperitoneally, 1 week later, compared with the MI group
Procedure: The surgery for left anterior descending coronary artery ligation was performed on mice to establish a mouse model of myocardial ischemia (MI group). […] Mice in the MI group were intraperitoneally injected with Lac-Phe (20 mg/kg), and then anesthetized 1 week later. An M-Mode echocardiogram was obtained under the guidance of B-Mode on a Doppler ultrasound Vevo2100 imaging system for small animals, and 10 or more cardiac cycles were recorded. Instrumental analysis software was used to measure various cardiac indicators of mice to assess the cardiac functions of the mice, including a left ventricular internal dimension systole (LVID), a left ventricular end systolic volume (LVESV), an inter-ventricular septum end-stolic thickness (IVS), an E/A ratio, an ejection fraction (EF), and a fraction shortening (FS).

Macrophages (RAW264.7) = assay: LPS-induced pro-inflammatory cytokine expression in macrophages, qRT-PCR; format: cell-based; conditions: LPS 100 ng/ml, Lac-Phe final concentration 20 μM, 24 hours
Procedure: Macrophages (RAW264.7) were divided into the following 3 groups: a control group (CTRL, including 0.1% of DMSO), a lipopolysaccharide (LPS)-treated group (LPS-induced inflammatory responses in macrophages, a concentration: 100 ng/ml), and an LPS+Lac-Phe-treated group (Lac-Phe was added to LPS-induced macrophages at a final concentration of 20 μM). 24 hours after administration, RNA was extracted from cells in each group, and expression levels of pro-inflammatory cytokines IL-6 and TNFα in cells in each group were determined by quantitative real-time polymerase chain reaction (qRT-PCR). […] The above results also indicate that Lac-Phe has the anti-inflammatory potential.

[6] = system: Primary mouse cardiomyocytes; assay: Viability of hypoxic cardiomyocytes, CCK8 method; format: cell-based; conditions: Lac-Phe final concentrations 10 μM and 20 μM, hypoxia treatment for 24 hours
Procedure: Primary mouse cardiomyocytes were divided into the following 4 groups: a control group (CTRL, including 0.1% of DMSO), a hypoxia group (a hypoxia treatment was performed for 24 hours), and hypoxia+Lac-Phe groups (cardiomyocytes were treated with Lac-Phe at final concentrations of 10 μM and 20 μM, respectively, and a hypoxia treatment was performed for 24 hours). The viability of cardiomyocytes was assayed by the CCK8 method.
It can be seen from the experimental results that Lac-Phe has the function of protecting cardiomyocytes against hypoxic injury.

experimental mice = conditions: supplementation of Lac-Phe, earlier studies; cited from earlier work

In the case of `C[C@H](O)C(=O)N[C@@H](Cc1ccccc1)C(=O)O` [Lac-Phe, N-lactoyl-phenylalanine], the “cell viability of hypoxic HUVECs” value [1] is reported as “significantly improved”, the “length of branches formed from HUVECs” value (HUVECs [2]) is reported as “increase” and the “number of branch points formed from HUVECs” value (HUVECs [2]) is reported as “increase”. For the same compound, the “number of apoptotic HUVECs” value (HUVECs [3]) was “significantly reduced”, the “migration of endothelial cells (wound closure)” value (HUVECs [4]) was “promoting the migration of endothelial cells” and the “cardiac function (LVID, LVESV, IVS, E/A ratio, EF, FS) by echocardiogram” value [5] was “significant improvement effect on the cardiac function”. For the same compound, the “expression level of pro-inflammatory cytokine IL-6” value (Macrophages (RAW264.7)) was “significantly decreased”, the “expression level of pro-inflammatory cytokine TNFα” value (Macrophages (RAW264.7)) was “significantly decreased” and the “viability of hypoxic cardiomyocytes” value [6] was “significantly alleviate the hypoxic injury of cardiomyocytes”. The “food intake of experimental mice” value (experimental mice) was “effectively reduce the food intake”.
